# Results taken from patent US20250213561A1, “SELECTIVE HYPOTHALAMUS PERMEABLE HDAC6 INHIBITORS FOR TREATMENT OF LEPTIN-RESISTANT OBESITY” (The Children’s Medical Center Corporation, priority 2022, published 2025).
# Entries after “also recorded” stand apart in the source; their conditions may differ.
# Legend:
# DIO mice [1] = experiment: Chronic treatment of DIO mice (body weight, food intake, DEXA, glucose homeostasis); format: in vivo; details: high fat diet induced mice
# Procedure: DIO mice were treated with ACY775 (10 mg/kg/day, i.p.) for 3 weeks. Daily body weight (g) of DIO mice treated with vehicle (n=17) or ACY775 (n=17) during 3 weeks of treatment was determined. Daily food intake (g) during 3 weeks of vehicle or ACY775 treatment was assessed. 24 hours' food intake per mouse during the first week of vehicle or ACY775 treatment was determined. Serum leptin (ng/ml) levels after 3 weeks of vehicle (n=24) or ACY775 (n=24) treatment was assessed. Lean mass (g), fat mass (g) and fat percentage (%) after 3 weeks of vehicle (n=17) or ACY775 (n=17) treatment measured by Dual-energy X-ray absorptiometry (DEXA) scan. DEXA scans were performed in two different cohorts. Glucose tolerance test (GTT) after 1 week of vehicle (n=33) or ACY775 (n=26) treated DIO mice was assessed. Area of curve (AOC) analysis for GTT was performed. Blood glucose (mg/dl) levels after 1 week of vehicle (n=17) or ACY775 (n=16) were assessed in treated DIO mice. Insulin tolerance test (ITT) was performed after 2 weeks of vehicle (n=31) or ACY775 (n=21) treatment of DIO mice. Serum insulin (ng/ml) levels were measured after 3 weeks of vehicle (n=22) or ACY775 (n=21) in treated DIO mice. A homeostatic model assessment of insulin resistance (HOMA-IR) was analyzed after 3 weeks of vehicle (n=14) or ACY775 (n=13) treated DIO mice.
# Food intake was analyzed hourly until 3:00 am. […] DEXA scans were performed in two different cohorts.
# DIO mice then were treated with ricolinostat (50 mg/kg, i.p.) for 3 weeks. Daily body weight (g), daily food intake (g), serum leptin (ng/ml) levels after 3 weeks of vehicle (n-8) or ricolinostat (n=8) treatment, lean mass (g); fat mass and fat percentage (%) after 3 weeks of vehicle (n=16) or ricolinostat (n=17) treatment measured by DEXA scan were determined.
# Blood glucose (mg/dl) levels were measured after 1 week of vehicle (n=16) or ricolinostat (n=16) treated DIO mice. GTT after 1 week of vehicle (n=17) or ricolinostat (n=16) treatment of DIO mice was assessed. AOC analysis for GTT was performed. ITT after 2 weeks of vehicle (n=17) or ricolinostat (n=16) treated DIO mice was measured. Serum insulin (ng/ml) levels after 3 weeks of vehicle (n=8) or ricolinostat (n=8) treatment were measured in DIO mice. Liver sections from 3 weeks of vehicle or ricolinostat treated DIO mice were stained by H&E.
# DIO mice then were treated with bavarostat (10 mg/kg, i.p.) for 3 weeks and daily body weight (g) of DIO mice treated with Veh (n=9) or bavarostat (n=9) measured during the three weeks of treatment period. Daily food intake (g) during 3 weeks of Veh or bavarostat treatment was also measured.
# ACY1083 was administered to DIO mice as described in Example 3.
# HDAC6 = HDAC6 (Homo sapiens (Human), UniProt Q9UBN7); details: unit printed as AM; unit of the source corrected; cited from earlier work
# [2] = in vivo; cited from earlier work
# DIO mice [3] = experiment: Chronic treatment of DIO mice (body weight, food intake, DEXA, glucose homeostasis); format: in vivo; details: 14 days, oral administration
# [4] = Brain/plasma ratio and brain or hypothalamus penetration; details: in vivo
# HDAC6-KO DIO mice = experiment: Chronic treatment of DIO WT versus HDAC6 KO mice; format: in vivo; details: DIO mice
# HDAC6 in AgRP neurons = experiment: DIO mice with HDAC6 depleted in AgRP neurons (HDAC6^Agrp-Δ); format: in vivo; details: HDAC6^Agrp-Δ versus HDAC6^WT DIO mice
# Procedure: Design, validation, and stereotaxic injection of AAV viral vector carrying the guide RNAs targeting the mouse HDAC6 genomic locus. Three designed sgRNAs were concatenated and constructed into an AAV vector carrying a cre-enabled mCherry fluorescent marker.
# Following the bilateral injection of AAV-sgHDAC6 into the arcuate nucleus of Agrp-ires-cre::LSL-Cas9-GFP (Agrp-Cre^+/−::Cas9^+/−) or control LSL-Cas9-GFP (Cas9^+/−) mice, immunostaining to detect the expression of mCherry and GFP was performed. AAV-sg-HDAC6 injected Agrp-Cre^+/−::Cas9^+/− (HDAC6^Agrp-Δ) and Cas9^+/−(HDAC6^WT) DIO mice (n=7 for each group) were fasted for 24 hours, and injected with ACY775 (10 mg/kg. i.p). Hourly total dark cycle food intake (g) (n=7 for each group) of these mice after ACY775 injection was measured. Body weight of AAV-sg-HDAC6 injected HDAC6^Agrp-Δ (n=11) and HDAC6^WT (n=6) mice were measured during 3 weeks of ACY775 (10 mg/kg/day, i.p.) treatment. Daily average food intake of HDAC6^Agrp-Δ (n=11) and HDAC6^WT (n=6) mice was measured during 3 weeks of ACY775 (10 mg/kg/day, i.p.) treatment. 24-hour food intake average of HDAC6^Agrp-Δ and HDAC6^WT mice during the 3 weeks of ACY775 treatment was assessed. Serum leptin level (ng/ml) of HDAC6^Agrp-Δ and HDAC6^WT mice after 2 weeks of ACY775 treatment (n=13 for HDAC6^WT and n=18 for HDAC6^Agrp-Δ) was measured. Lean mass (g); fat mass; and fat percentage (%) of HDAC6^Agrp-Δ and HDAC6^WT DIO mice after 3 weeks of ACY775 treatment was measured by DEXA scan. The HDAC6 inhibitor responsive neurons in the dorsomedial hypothalamus (DMH) were assessed. Immunostaining and quantification of c-Fos expression was performed in the DMH of DIO mice following one-time ACY775 treatment (10 mg/kg, i.p.).
# DIO mice [5] = details: diet-induced obese mice; cited from earlier work
# HDAC6, sequence (Q9UBN7 whole entry, species assumed): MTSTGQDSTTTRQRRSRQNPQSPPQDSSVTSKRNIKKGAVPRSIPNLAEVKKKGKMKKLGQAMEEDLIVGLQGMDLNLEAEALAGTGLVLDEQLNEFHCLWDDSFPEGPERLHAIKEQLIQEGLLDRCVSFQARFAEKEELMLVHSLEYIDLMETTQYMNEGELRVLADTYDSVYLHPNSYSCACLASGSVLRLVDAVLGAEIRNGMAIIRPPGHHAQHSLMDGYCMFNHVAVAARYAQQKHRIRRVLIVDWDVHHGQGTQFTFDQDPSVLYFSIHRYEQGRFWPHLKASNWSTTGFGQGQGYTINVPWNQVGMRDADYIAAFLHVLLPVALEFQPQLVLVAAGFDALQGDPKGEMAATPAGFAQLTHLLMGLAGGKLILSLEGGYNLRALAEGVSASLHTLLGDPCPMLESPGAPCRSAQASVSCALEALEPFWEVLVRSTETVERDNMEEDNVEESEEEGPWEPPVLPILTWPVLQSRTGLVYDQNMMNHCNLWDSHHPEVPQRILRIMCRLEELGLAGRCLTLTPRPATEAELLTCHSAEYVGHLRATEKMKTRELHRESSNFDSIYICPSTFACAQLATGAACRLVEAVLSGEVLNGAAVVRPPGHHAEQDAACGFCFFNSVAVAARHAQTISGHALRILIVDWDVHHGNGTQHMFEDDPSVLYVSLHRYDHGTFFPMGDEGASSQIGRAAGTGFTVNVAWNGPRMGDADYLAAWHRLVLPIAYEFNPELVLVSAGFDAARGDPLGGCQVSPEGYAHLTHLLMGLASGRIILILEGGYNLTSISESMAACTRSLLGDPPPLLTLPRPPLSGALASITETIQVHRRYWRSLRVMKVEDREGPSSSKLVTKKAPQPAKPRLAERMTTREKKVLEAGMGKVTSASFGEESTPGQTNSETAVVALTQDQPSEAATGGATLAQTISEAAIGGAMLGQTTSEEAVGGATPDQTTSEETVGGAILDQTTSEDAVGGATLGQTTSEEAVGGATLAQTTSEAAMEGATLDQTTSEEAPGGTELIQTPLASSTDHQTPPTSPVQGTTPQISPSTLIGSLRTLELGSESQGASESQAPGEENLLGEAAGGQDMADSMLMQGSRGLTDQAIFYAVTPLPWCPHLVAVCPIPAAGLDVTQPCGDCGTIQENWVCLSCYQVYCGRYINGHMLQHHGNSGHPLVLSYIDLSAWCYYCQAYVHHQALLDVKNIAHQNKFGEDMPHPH
SMILES,food intake and total body fat mass (summary) (DIO mice [1]),HDAC6 IC50 (HDAC6),brain penetrance / BBB permeability [2],body weight (DIO mice [3]),penetrance into the hypothalamus [4],"blood glucose, serum insulin and leptin levels, WT versus HDAC6 KO (HDAC6-KO DIO mice)","fat mass and fat %, WT versus HDAC6 KO (HDAC6-KO DIO mice)","food intake, WT versus HDAC6 KO (HDAC6-KO DIO mice)","glucose tolerance and insulin sensitivity (GTT, ITT), WT versus HDAC6 KO (HDAC6-KO DIO mice)","lean mass, WT versus HDAC6 KO (HDAC6-KO DIO mice)","body weight, WT versus HDAC6 KO (HDAC6-KO DIO mice; 3 weeks, ACY775 10, ACY738 50, Tubastatin A 25 mg/kg/day i.p.)",anti-obesity effects on chronic treatment (HDAC6 in AgRP neurons),anti-obesity effects reported by Cakir et al. (DIO mice [5])
O=C(NO)c1cnc(NC2(c3ccccc3)CCC(F)(F)CC2)nc1 [ACY1083],significant reduction of food intake and total body fat mass,3 nM,brain-penetrating,significant decrease in body weight; also recorded: reduced body weight,–,–,–,–,–,–,–,–,–
CN1CCc2c(c3ccccc3n2Cc2ccc(C(=O)NO)cc2)C1 [tubastatin A],–,–,extremely low,–,neither of which have high penetrance into the hypothalamus,all reduced equally in the wt and HDAC6 KO group,significantly lower in both wt and HDAC6 KO groups,reduced similarly,improved glucose tolerance and increased insulin sensitivity in both wt and the HDAC6 KO mice,not different,reduced the body weight of the HDAC6 KO mice the same as the wt mice,did not change Tubastatin A's effects on suppressing feeding or body weight,"reduce food intake, fat mass, hepatic steatosis and improve systemic glucose homeostasis"
